Measurements from ChEMBL document CHEMBL5131511, “Design of artificial α-helical peptides targeting both gp41 deep pocket and subpocket as potent HIV-1 fusion inhibitors” (Eur J Med Chem, 2022).
Calls of active or inactive are those of the source. The calls are words filed in the database; no cut-off is given here. Where a SMILES comes first, the peptide text is derived from it. [ ]: non-standard residue; d: D form. The star is where a group is joined. O(cholesteryl) = CC(C)CCC[C@@H](C)[C@H]1CC[C@H]2[C@@H]3CC=C4C[C@@H](O*)CC[C@]4(C)[C@H]3CC[C@]12C; PEG24 = NCCOCCOCCOCCOCCOCCOCCOCCOCCOCCOCCOCCOCCOCCOCCOCCOCCOCCOCCOCCOCCOCCOCCOCCOCCC(=O)O

What was measured:
[1] = system: Human immunodeficiency virus 1; assay: Antiviral activity against HIV-1 IIIB (B, X4) assessed as inhibition of viral replication measured after 4 days by ELISA; type: functional, organism-based; conditions: Human immunodeficiency virus 1, IIIB (B, X4), 96 h
[2] = Alpha-helicity of compound in PBS buffer at pH 7.4 at 10 uM incubated for 30 mins by CD spectroscopy relative to control; type: physicochemical; conditions: pH 7.4, 0.5 h
[3] = system: Human immunodeficiency virus 1; assay: Binding affinity to HIV1 gp41 NHR target surrogate N36 assessed as alpha-helicity at 10 uM incubated for 30 mins by CD spectroscopy (reference value: 26 %)
[4] = system: Human immunodeficiency virus 1; assay: Binding affinity to HIV1 gp41 NHR target surrogate T21 assessed as alpha-helicity at 10 uM incubated for 30 mins by CD spectroscopy (reference value: 66 %)
[5] = system: Human immunodeficiency virus 1; assay: Binding affinity to HIV1 gp41 NHR target surrogate N36 assessed as melting temperature at 10 uM incubated for 30 mins by CD spectroscopy
[6] = system: Human immunodeficiency virus 1; assay: Binding affinity to HIV1 gp41 NHR target surrogate T21 assessed as melting temperature at 10 uM incubated for 30 mins by CD spectroscopy
[7] = system: Human immunodeficiency virus 1; assay: Binding affinity to HIV1 gp41 NHR target surrogate T21 at 50 uM incubated for 30 mins by N-PAGE analysis
[8] = system: Human immunodeficiency virus 1; assay: Binding affinity to HIV1 gp41 NHR target surrogate T21 assessed as binding constant, K by isothermal titration calorimetry
[9] = system: Human immunodeficiency virus 1; assay: Antiviral activity against HIV-1 IIIB assessed as inhibition of viral replication measured after 4 days by ELISA; type: functional, organism-based; conditions: Human immunodeficiency virus 1, IIIB, 96 h
[10] = Cytotoxicity against human CEMx174 5.25M7 cells upto 10 uM incubated for 48 hrs by CCK-8 assay; type: toxicity, cell-based; conditions: cemx174 5.25m7, 48 h
MT2 = assay: Cytotoxicity against human MT2 cells upto 10 uM incubated for 48 hrs by CCK-8 assay; type: toxicity, cell-based; conditions: mt2, 48 h
[11] = system: Human immunodeficiency virus 1; assay: Antiviral activity against T20-sensitive HIV-1 D36G assessed as inhibition of viral replication measured after 4 days by ELISA; type: functional, organism-based
[12] = system: Human immunodeficiency virus 1; assay: Antiviral activity against T20-resistant HIV-1 V38E/N42S assessed as inhibition of viral replication measured after 4 days by ELISA; type: functional, organism-based
[13] = system: Human immunodeficiency virus 1; assay: Antiviral activity against T20-resistant HIV-1 V38A/N42T assessed as inhibition of viral replication measured after 4 days by ELISA; type: functional, organism-based
[14] = system: Human immunodeficiency virus 1; assay: Binding affinity to HIV1 gp41 NHR target surrogate T21 assessed as sedimentation coefficient incubated for 30 mins measured for 0.16 to 7 hrs by Sedimentation velocity analysis; conditions: time 0.56-7.5 hrs
[15] = system: Human immunodeficiency virus 1; assay: Inhibition of HIV-1 replication assessed as inhibition of gp41 six-helix bundle formation between T21 and CP32 incubated for 30 mins followed by CP32 addition measured after 30 mins by N-PAGE analysis; type: functional; conditions: dose <= 120.0 µM, time 1.0 hrs, DDE = dose-dependent effect
[16] = Selectivity ratio of EC50 for antiviral activity against T20-resistant HIV-1 V38E/N42S to EC50 for antiviral activity against T20-sensitive HIV-1 D36G; type: functional
[17] = Selectivity ratio of EC50 for antiviral activity against T20-resistant HIV-1 V38A/N42T to EC50 for antiviral activity against T20-sensitive HIV-1 D36G; type: functional

Row | Compound | EC50 [1] | Activity [2] | Activity [3] | Activity [4] | Tm [5] | Tm [6] | EC50 [9] | other results
1 | Ac-QEESIKKWEEWSKKIEELIKKSEELIKKIEEQIKK-NH2 | 64.5 nM | 63% | 92% | 100% | 52 °C | 74 °C |  | Activity [7]: Active; K [8]: 1.59 10^5/M
2 | Ac-WEEWDKKIEELIKKSEELIKKIEEQIKK-NH2 | > 10000 nM |  |  |  |  |  |  | 
3 | CC[C@H](C)[C@H](NC(=O)[C@H](CCC(N)=O)NC(=O)[C@H](CCC(=O)O)NC(=O)[C@H](CCC(=O)O)NC(=O)[C@@H](NC(=O)[C@H](CCCCN)NC(=O)[C@H](CCCCN)NC(=O)[C@@H](NC(=O)[C@H](CC(C)C)NC(=O)[C@H](CCC(=O)O)NC(=O)[C@H](CCC(=O)O)NC(=O)[C@H](CO)NC(=O)[C@H](CCCCN)NC(=O)[C@H](CCCCN)NC(=O)[C@@H](NC(=O)[C@H](CC(C)C)NC(=O)[C@H](CCC(=O)O)NC(=O)[C@H](CCC(=O)O)NC(=O)[C@@H](NC(=O)[C@H](CCCCN)NC(=O)[C@H](CCCCN)NC(=O)[C@H](CO)NC(=O)[C@H](Cc1c[nH]c2ccccc12)NC(=O)[C@H](CCC(=O)O)NC(=O)[C@H](CCC(=O)O)NC(=O)[C@H](Cc1c[nH]c2ccccc12)NC(=O)[C@H](CCCCN)NC(=O)[C@H](CCCCN)NC(=O)[C@@H](NC(=O)[C@H](CO)NC(=O)[C@H](CCC(=O)O)NC(=O)[C@H](CCC(=O)O)NC(=O)[C@H](CCC(N)=O)NC(C)=O)[C@@H](C)CC)[C@@H](C)CC)[C@@H](C)CC)[C@@H](C)CC)[C@@H](C)CC)C(=O)N[C@@H](CCCCN)C(=O)N[C@@H](CCCCN)C(=O)NCCOCCOCCOCCOCCOCCOCCOCCOCCOCCOCCOCCOCCOCCOCCOCCOCCOCCOCCOCCOCCOCCOCCOCCOCCC(=O)N[C@@H](CS)C(=O)O[C@H]1CC[C@@]2(C)C(=CC[C@H]3[C@@H]4CC[C@H]([C@H](C)CCCC(C)C)[C@@]4(C)CC[C@@H]32)C1 (Ac-QEESIKKWEEWSKKIEELIKKSEELIKKIEEQIKK[PEG24]C-{O(cholesteryl)}) |  | 56% | 81% | 94% | 50 °C | 68 °C | 5.21 nM | Activity [10]: Non-Toxic; Activity (MT2): Non-Toxic; EC50 [11]: 1.62 nM; EC50 [12]: 5.07 nM; EC50 [13]: 2.38 nM; S20,w [14]: 2.43 S; inhibition [15]: Dde; Ratio EC50 [16]: 3.1; Ratio EC50 [17]: 1.5
4 | Ac-QIWNNMTWEEWDKKIEELIKKSEELIKKIEEQIKK-NH2 | 36.3 nM |  |  |  |  |  |  | 
5 | Ac-QEENIKKWEEWDKKIEELIKKSEELIKKIEEQIKK-NH2 | 65.7 nM |  |  |  |  |  |  | 
6 | CC[C@H](C)[C@H](NC(=O)[C@H](CO)NC(=O)[C@H](CCC(=O)O)NC(=O)[C@H](CCC(=O)O)NC(=O)[C@H](CCC(N)=O)NC(C)=O)C(=O)N[C@@H](CCCCN)C(=O)N[C@@H](CCCCN)C(=O)N[C@@H](Cc1c[nH]c2ccccc12)C(=O)N[C@@H](CCC(=O)O)C(=O)N[C@@H](CCC(=O)O)C(=O)N[C@@H](Cc1c[nH]c2ccccc12)C(=O)N[C@@H](CO)C(=O)N[C@@H](CCCCN)C(=O)N[C@@H](CCCCN)C(=O)N[C@H](C(=O)N[C@@H](CCC(=O)O)C(=O)N[C@@H](CCC(=O)O)C(=O)N[C@@H](CC(C)C)C(=O)N[C@H](C(=O)N[C@@H](CCCCN)C(=O)N[C@@H](CCCCN)C(=O)N[C@@H](CO)C(=O)N[C@@H](CCC(=O)O)C(=O)N[C@@H](CCC(=O)O)C(=O)N[C@@H](CC(C)C)C(=O)N[C@H](C(=O)N[C@@H](CCCCN)C(=O)N[C@@H](CCCCN)C(=O)N[C@H](C(=O)N[C@@H](CCC(=O)O)C(=O)N[C@@H](CCC(=O)O)C(=O)N[C@@H](CCC(N)=O)C(=O)N[C@H](C(=O)N[C@@H](CCCCN)C(=O)N[C@@H](CCCCN)C(=O)N[C@@H](CS)C(=O)O[C@H]1CC[C@@]2(C)C(=CC[C@H]3[C@@H]4CC[C@H]([C@H](C)CCCC(C)C)[C@@]4(C)CC[C@@H]32)C1)[C@@H](C)CC)[C@@H](C)CC)[C@@H](C)CC)[C@@H](C)CC)[C@@H](C)CC (Ac-QEESIKKWEEWSKKIEELIKKSEELIKKIEEQIKKC-{O(cholesteryl)}) |  |  |  |  |  |  | > 500 nM | 
